Assay type in all cases: biochemical
Assay [1] addresses T1, catalytic domain of human collagenase-1 (MMP-1) (Homo sapiens, UniProt P03956).
T1 construct: enzyme activity of the catalytic domain of human collagenase-1 (MMP-1); purchased Biocol, Potsdam MMP1
T1 sequence (P03956 100-269 limits assumed): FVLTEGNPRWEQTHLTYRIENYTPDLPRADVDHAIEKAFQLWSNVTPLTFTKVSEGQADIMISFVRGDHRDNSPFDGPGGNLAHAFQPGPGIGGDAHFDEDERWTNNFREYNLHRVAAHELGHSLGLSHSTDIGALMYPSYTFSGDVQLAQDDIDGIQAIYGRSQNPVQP
Nature of the assay: Enzyme activity of the catalytic domain of human collagenase-1 (MMP-1), fluorogenic substrate. Conditions: APMA-activated proenzyme, fluorescence 328/393 nm. The method, then:
a) Determining the enzyme activity of the catalytic domain of human collagenase-1 (MMP-1).
Activation of the proenzyme:
2 parts by volume of proenzyme are incubated, at 37° C. for 1 hour, with 1 part by volume of APMA solution. The APMA solution is prepared from a 10 mmol/l solution of p-aminophenylmercuric acetate in 0.1 mmol/l NaOH by diluting with 3 parts by volume of tris/HCl buffer, pH 7.5 (see below). The pH is adjusted to between 7.0 and 7.5 by adding 1 mmol/l HCl. After the enzyme has been activated, it is diluted with the tris/HCl buffer to a concentration of 2.5 μg/ml.
In order to measure the enzyme activity, 10 μl of enzyme solution are incubated for 15 minutes with 10 μl of a 3% (v/v) buffered solution of dimethyl sulfoxide (reaction 1). In order to measure the enzyme inhibitor activity, 10 μl of enzyme solution are incubated with 10 μl of a 3% (v/v) buffered solution of dimethyl sulfoxide which contains the enzyme inhibitor (reaction 2).
Both in the case of reaction 1 and in the case of reaction 2, the enzyme reaction is monitored by fluorescence spectroscopy (328 nm (extinction)/393 nm (emission)) after adding 10 μl of a 3% (v/v) aqueous solution of dimethyl sulfoxide which contains 0.3 mmol of the substrate/l.
(§1) The enzyme activity is presented as increase in extinction/minute.
The inhibitory effect is calculated as percentage inhibition using the following formula: % inhibition=100−[(increase in extinction/minute in reaction 2)/(increase in extinction/minute in reaction 1)×100].
The IC50, i.e. the inhibitor concentration which is required for 50% inhibition of the enzyme activity, is determined graphically by plotting the percentage inhibitions at different inhibitor concentrations. The buffer solution contains 0.05% Brij (Sigma, Deisenhofen, Germany) and also 0.1 mol of tris/HCl/l, 0.1 mol of NaCl/l, 0.01 mol of CaCl2/l (pH=7.5).
The enzyme solution contains 2.5 μg of the enzyme domain/ml.
The substrate solution contains 0.3 mmol of the fluorogenic substrate (7-methoxycoumarin-4-yl)acetyl-Pro-Leu-Gly-Leu-3-(2′,4′-dinitrophenyl)-L-2,3-diaminopropionyl-Ala-Arg-NH2/l (Bachem, Heidelberg, Germany).

Assay [2] concerns the target T2, catalytic domain of human stromelysin (MMP-3) (Homo sapiens, UniProt P08254).
T2 construct: of the catalytic domain of human stromelysin (MMP-3) and neutrophilic collagenase (MMP-8); made in house
Nature of the assay: Enzyme activity of the catalytic domain of human stromelysin (MMP-3), fluorogenic substrate. The following applies: catalytic domain prepared as described by Ye et al., fluorescence 328/393 nm. How it is done: (§2) b) Preparation, and determination of the enzyme activity, of the catalytic domain of human stromelysin (MMP-3) and neutrophilic collagenase (MMP-8).
(§3) The two enzymes, i.e. stromelysin (MMP-3) and neutrophilic collagenase (MMP-8), were prepared as described by Ye et al. (Biochemistry; 31 (1992) pages 11231–11235). In order to measure the enzyme activity or the inhibitory effect on the enzyme, 10 μl of enzyme solution were incubated, for 15 minutes, with 10 μl of a 3% (v/v) buffered solution of dimethyl sulfoxide which contained the enzyme inhibitor, where appropriate. After 10 μl of a 3% (v/v) aqueous solution of dimethyl sulfoxide which contained 1 mmol of substrate/l had been added, the enzyme reaction was monitored by fluorescence spectroscopy (328 nm (ex)/393 nm(em)).
as §1
(§4) The buffer solution contained 0.05% Brij (Sigma, Deisenhofen, Germany) as well as 0.1 mol of tris/HCl/l, 0.1 mol of NaCl/l, 0.01 mol of CaCl2/l and 0.1 mol of piperazine-N,N′-bis[2-ethanesulfonic acid]/l (pH=7.5). The MMP-3 enzyme solution contained 2.3 μg, and the MMP-8 enzyme solution contained 0.6 μg, of one of the enzyme domains/ml prepared as described by Ye et al. The substrate solution contained 1 mmol of the fluorogenic substrate (7-methoxycoumarin-4-yl)acetyl-Pro-Leu-Gly-Leu-3-(2′,4′-dinitrophenyl)-L-2,3-diaminopropionyl-Ala-Arg-NH2/l (Bachem, Heidelberg, Germany).

The target in assay [3] is T3, catalytic domain of human neutrophilic collagenase (MMP-8) (Homo sapiens, UniProt P22894).
T3 construct: of the catalytic domain of human stromelysin (MMP-3) and neutrophilic collagenase (MMP-8); made in house
Put plainly: Enzyme activity of the catalytic domain of neutrophilic collagenase (MMP-8), fluorogenic substrate. Conditions: catalytic domain prepared as described by Ye et al., fluorescence 328/393 nm. The method, then: as §2, §3, §1, §4

SMILES strings stand for the structures. Structures can show the parent of a compound that is named as a salt.

T2 sequence (P08254 100-272 limits assumed): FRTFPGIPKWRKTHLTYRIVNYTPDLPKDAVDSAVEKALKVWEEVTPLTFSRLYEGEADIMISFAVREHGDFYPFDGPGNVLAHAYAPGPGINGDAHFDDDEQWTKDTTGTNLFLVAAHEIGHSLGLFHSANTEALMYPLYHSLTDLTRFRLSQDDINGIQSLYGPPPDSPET
T3 sequence (P22894 100-262 limits assumed): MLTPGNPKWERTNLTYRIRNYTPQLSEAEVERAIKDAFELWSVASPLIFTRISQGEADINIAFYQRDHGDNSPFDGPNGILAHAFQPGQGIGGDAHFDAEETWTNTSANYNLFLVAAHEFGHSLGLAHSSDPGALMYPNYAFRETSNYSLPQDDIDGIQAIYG

One may read the IC50 as the midpoint of a concentration-inhibition curve. Read a low IC50 as greater potency. As for `O=C(NO)[C@H]1[C@H]2CCCC[C@H]2CCN1S(=O)(=O)c1ccc(-c2ccc(Cl)cc2)cc1` (single isomer, unassigned) [Example 14, 2-(4′-chlorobiphenyl-4-sulfonyl)decahydroisoquinoline-1-(N-hydroxy)-carboxamide], the IC50 in assay [1] was found to be 400 nM; in assay [2] it was 25 nM; in assay [3] it was 2.2 nM.

Consider `O=C(NO)[C@@H]1[C@@H]2CCCC[C@@H]2CCN1S(=O)(=O)c1ccc(-c2ccc(Cl)cc2)cc1` (single isomer, unassigned) [Example 15, 2-(4′-chlorobiphenyl-4-sulfonyl)decahydroisoquinoline-1-(N-hydroxy)-carboxamide], for which the IC50 was found to be 6000 nM in assay [1], 10000 nM in assay [2] and 2000 nM in assay [3].

Turning to `O=C(NO)C1C2CCCCC2CCN1S(=O)(=O)c1ccc(-c2ccc(Cl)cc2)cc1` (stereo not drawn) [Example 3, 2-(4′-chlorobiphenyl-4-sulfonyl)decahydroisoquinoline-1-(N-hydroxy)-carboxamide], the IC50 came out at 400 nM in assay [1], 40 nM in assay [2] and 3 nM in assay [3].

Regarding `O=C(NO)C1C2CCCCC2CCN1S(=O)(=O)c1ccc(Oc2ccccc2)nc1` (stereo not drawn) [Example 5, 2-(6-phenoxypyridine-3-sulfonyl)decahydroisoquinoline-1-(N-hydroxy)-carboxamide trifluoroacetate], the IC50 was found to be 70 nM in assay [1], 28 nM in assay [2] and 2.5 nM in assay [3].

As for `O=C(NO)C1C2CCCCC2CCN1S(=O)(=O)CCc1ccc(-c2ccc(Cl)cc2)cc1` (stereo not drawn) [Example 7, 2-[2-(4′-chlorobiphenyl-4-yl)ethanesulfonyl]decahydroisoquinoline-1-(N-hydroxy)carboxamide], the IC50 is 600 nM in assay [1], 65 nM in assay [2] and 13 nM in assay [3].

With `O=C(NO)C1C2CCCCC2CCN1S(=O)(=O)c1ccc(Oc2ccncc2)cc1` (stereo not drawn) [Example 9, 2-[4-(pyridin-4-yloxy)benzenesulfonyl]decahydroisoquinoline-1-(N-hydroxy)carboxamide trifluoroacetate], the IC50 stood at 1000 nM in assay [1], 160 nM in assay [2] and 22 nM in assay [3].

With `COc1ccc(Oc2ccc(S(=O)(=O)N3CCC4CCCCC4C3C(=O)NO)cc2)cc1` (stereo not drawn) [Example 11, 2-[4-(4-methoxyphenoxy)benzenesulfonyl]decahydroisoquinoline-1-(N-hydroxy)carboxamide], the 50% inhibitory concentration (IC50) in assay [1] turned out to be 220 nM; in assay [2] it was 25 nM; in assay [3], 2.5 nM.

As for `O=C(NO)C1C2CCCCC2CCN1S(=O)(=O)c1ccc(Oc2ccc(OCC(F)(F)F)cc2)cc1` (stereo not drawn) [Example 13, 2-{4-[4-(2,2,2-trifluoroethoxy)phenoxy]benzenesulfonyl}decahydroisoquinoline-1-(N-hydroxy)carboxamide], the values for the IC50 in assay [1], in assay [2] and in assay [3] were 180 nM, 30 nM and 4 nM, respectively.

For `O=C(NO)C1C2CCCCC2CCN1S(=O)(=O)c1ccc(-c2ccc(OC(F)(F)F)cc2)cc1` (stereo not drawn) [Example 19, 2-(4′-trifluoromethoxybiphenyl-4-sulfonyl)decahydroisoquinoline-1-(N-hydroxy)carboxamide], the IC50 turned out to be 2100 nM in assay [1], 59 nM in assay [2] and 10 nM in assay [3].

Turning to `O=C(NO)C1C2CCCCC2CCN1S(=O)(=O)c1ccc(Oc2ccc(F)cc2)cc1` (stereo not drawn) [Example 20, 2-[4-(4-fluorophenoxy)benzenesulfonyl]decahydroisoquinoline-1-(N-hydroxy)carboxamide], the IC50 turned out to be 41 nM in assay [1], 26 nM in assay [2] and 3 nM in assay [3].

For the compound `O=C(NO)[C@H]1[C@H]2CCCC[C@H]2CCN1S(=O)(=O)c1ccc(Oc2ccc(F)cc2)cc1` [Example 21, 2-[4-(4-fluorophenoxy)benzenesulfonyl]decahydroisoquinoline-1-(N-hydroxy)carboxamide], the values for the IC50 in assay [1], in assay [2] and in assay [3] were 21 nM, 23 nM and 2.3 nM, respectively.

As to `O=C(NO)C1C2CCCCC2CCN1S(=O)(=O)c1ccc(Oc2ccc(OC(F)(F)F)cc2)cc1` (stereo not drawn) [Example 23, 2-[4-(4-trifluoromethoxyphenoxy)benzenesulfonyl]decahydroisoquinoline-1-(N-hydroxy)carboxamide], the IC50 in assay [1] amounted to 290 nM; in assay [2], 50 nM; in assay [3] it was 9 nM.

On to `N#Cc1ccc(Oc2ccc(S(=O)(=O)N3CCC4CCCCC4C3C(=O)NO)cc2)cc1` (stereo not drawn) [Example 26, 2-[4-(4-cyanophenoxy)benzenesulfonyl]decahydroisoquinoline-1-(N-hydroxy)carboxamide], for which the concentration for half-maximal inhibition (IC50) is 450 nM in assay [1], 41 nM in assay [2] and 16 nM in assay [3].
